Article PMC12267471, “Discovery of natural scaffolds as HER2 inhibitors for breast cancer: virtual screening, molecular dynamics, and biological characterization with selectivity profiling” (Scientific Reports, 2025)

Assays:
MCF10A cells = test: MTT cytotoxicity assay, non-tumorigenic MCF10A; assay type: cell-based, human
SKBR3 cells [1] = test: Wound healing assay, SKBR3; assay type: cell-based; conditions: Homo sapiens, SK-BR-3
Procedure: In a sterile flat-bottom 24-well plate, SKBR3 and BT-474 breast cancer cells were plated at a density of 1 × 10^5 cells/well. […] Wounds were then inflicted across each cell monolayer using a sterile 200 µL pipette tip. Media was aspirated, and cells were washed twice with PBS to remove floating cells and cell debris. Fresh serum-free media was placed up against the well wall to cover the bottom of the well and prevent further cell detachment. Incubation of cells was resumed for five hours at 37 °C in a humidified CO2 incubator. Subsequently, the media were substituted with fresh ones containing various doses of liquiritin, oroxin B, or DMSO as a vehicle control (3 replicates/group) along with EGF (100 ng/mL) as a scattering factor. Wound closure was microscopically monitored in vehicle-treated control wells, and the time frame for wound closure was determined to be 72 h. Before the closure of wounds in the vehicle-treated control wells, the media were removed, cells were washed with PBS and completely fixed using cold methanol for 20 min at 4 °C. An inverted VistaVision microscope was used to take pictures of the wounds monitored at zero and 72 h with a VistaVision Still camera (VWR, Radnor, PA).
Results were expressed as a percentage of cell migration according to the following Equation[16]: [drawing 2]
Where Tt is the wound thickness in treatment wells, TDMSO is the thickness of the wound in control wells treated by DMSO, and Tº is the thickness of the wound at zero time. Wound thickness was calculated in three or more randomly selected fields per treatment group.

BT-474 cells = test: Cell cycle analysis by PI flow cytometry, BT-474; assay type: cell-based, human; conditions: BT-474, 3.5 µM, 24 h (control 59%)
Procedure: To evaluate liquiritin’s impact on cell cycle progression, a propidium iodide (PI)-based flow cytometry assay was performed using the Cell Cycle Analysis Kit (ab139418, Abcam) following the manufacturer’s protocol. BT-474 and SKBR3 cells were seeded into 100 mm culture plates at a density of 1 × 10^6 cells/plate in RPMI 1640 medium supplemented with 10% FBS and incubated overnight. To synchronize cells in the G1 phase, cultures were rinsed twice with PBS and maintained in serum-reduced medium (0.5% FBS) for 48 h. Synchronized cells were subsequently treated with liquiritin at concentrations equivalent to its respective IC50 values (determined via prior proliferation assays) in serum-free media for 24 h.
Post-treatment, cells were detached using trypsin, washed with ice-cold PBS, and fixed in 66% ethanol at 4 °C for 2 h. Fixed cells were rehydrated in PBS and stained with a freshly prepared PI solution (1 mg/mL PI, 5,500 U/mL RNase A in PBS) for 30 min at 4 °C in the dark. DNA content was quantified using a BD FACS Calibur flow cytometer (BD Biosciences, San Jose, CA), with 10,000 events analyzed per sample. Cell cycle phase distributions (G0/G1, S, G2/M) were calculated from histogram data generated by Cell Quest software (BD Biosciences). All assays were performed in triplicate to ensure reproducibility.

SKBR3 cells [2] = test: Annexin V-FITC/PI apoptosis detection, SKBR3; assay type: cell-based, human; conditions: SKBR3, 6.4 µM, 48 h
Procedure: To evaluate the induction of apoptosis, the translocation of phosphatidylserine to the outer cell membrane, as a hallmark of early apoptosis, was detected by the binding of annexin V, using the Annexin V-FITC Early Apoptosis Detection Kit (BD BioVision). Cells were seeded at a density of 5 × 10^5 cells per 100 mm culture plate and allowed to adhere overnight. […] At the end of the treatment period, cells were harvested by trypsinization, washed twice with ice-cold PBS, and resuspended in 500 µL of chilled 1X Annexin V Binding Buffer. To each sample, 5 µL of Annexin V-FITC conjugate and 5 µL of propidium iodide (PI, 50 µg/mL) were added. The cell suspensions were incubated for 5 minutes on ice in the dark to allow for staining.
Flow cytometric analysis was performed using excitation at 488 nm and emission at 530 nm for FITC detection (FL1 channel) and phycoerythrin emission settings for PI detection (FL2 channel). Data acquisition and analysis were facilitated by Cell Quest software (BD Biosciences), with dot plots divided into four quadrants to distinguish different cell populations: lower left (LL) for viable, non-apoptotic cells (negative for both annexin V and PI); lower right (LR) for early apoptotic cells (annexin V-positive, PI-negative); upper left (UL) for dead or necrotic cells (PI-positive, annexin V-negative); and upper right (UR) for late apoptotic cells (double-positive). All assays were conducted in triplicate to ensure reliability and reproducibility.

[3] = system: HER2 protein in SKBR3 cells; test: Western blot of p-HER2 and t-HER2, SKBR3; assay type: cell-based, human; conditions: SKBR3, 10 µM, 72 h
Procedure: SKBR3 and BT-474 were plated in RPMI-1640 media, washed, and incubated for 72 h. They were lysed in cold lysis buffer, frozen, collected, sonicated, and centrifuged for 10 min under cooling. The stacking and resolving solutions for polyacrylamide gels were prepared using various solutions, including 30% acrylamide, 0.5 M Tris, 10% SDS, 10% Ammonium persulfate, and 0.005 mL TEMED in 3.4 mL water and 3.3 mL water respectively. The ReadyPrepTM protein extraction kit was used to extract total protein from samples. Protein concentration was determined using the Bradford Protein Assay Kit. Samples were mixed with Laemmli sample buffer, pH adjusted and boiled for five minutes at 95 °C before loading onto SDS-polyacrylamide gels. Proteins in each sample were mixed, boiled, and loaded onto SDS-polyacrylamide gels. They were separated using the SDS-PAGE method, using the TGX Stain-Free™ FastCast™ Acrylamide Kit and a Cleaver electrophoresis unit. Proteins were transferred from gels to PVDF membranes using transfer sandwiches. Filter paper, membrane, gel, and filter paper were stacked in a sandwich. Gels were blotted onto PVDF membranes via electrophoresis using a Bio-Rad Semi-dry Electroblotter for 30 min. […] The intensity of each band was quantitated using ImageLab.

`O=C1C[C@@H](c2ccc(O[C@@H]3O[C@H](CO)[C@@H](O)[C@H](O)[C@H]3O)cc2)Oc2cc(O)ccc21` [Liquiritin] was tested, and the IC50 (MCF10A cells; Homo sapiens, MCF-10A, MCF10A, MTT, 24 h) was 27.9 ± 1.1 µM, the “selectivity index (SI)” value (MCF10A cells; IC50 MCF10A / IC50 BT-474) was 8 and the “selectivity index (SI)” value (MCF10A cells; IC50 MCF10A / IC50 SKBR3) was 4.4. The inhibition at 3 µM (SKBR3 cells [1]; SKBR3, 3 µM, 72 h, read-out: inhibition of cell migration) was 22.1%, the inhibition at 6 µM (SKBR3 cells [1]; SKBR3, 6 µM, 72 h, read-out: inhibition of cell migration) was 32.8% and the inhibition at 10 µM (SKBR3 cells [1]; SKBR3, 10 µM, 72 h, read-out: inhibition of cell migration) was 38.2%. The inhibition at 20 µM (SKBR3 cells [1]; SKBR3, 20 µM, 72 h, read-out: inhibition of cell migration) was 54.1%, the IC50 (SKBR3 cells [1]; SKBR3, wound healing, read-out: IC50, cell migration) was 16.9 µM and the “proportion of cells in G1 phase” value (BT-474 cells) was ~88%. The early apoptotic population (SKBR3 cells [2]) was 7.33%, the “late apoptosis (Annexin V+/PI+) cells” value (SKBR3 cells [2]) was 14.59% and the necrotic population (SKBR3 cells [2]) was 2.84%. For the same compound, the “total expression levels of HER2 protein” value [3] was “comparable suppressive effects” and the HER2 phosphorylation ([3]; vs vehicle) was “significantly inhibited HER2 phosphorylation”.
